Experimental findings from patent US20220008391A1, “NOVEL COMPOUNDS FOR CONTROLLING ARTHROPODS” (Bayer Animal Health GmbH, priority 2018, published 2022) are described below.

This data set is described as follows: Measurement of solubility in buffer at pH 6.5. The data set is classed as physicochemical. The settings on record: aqueous buffer, kinetic from dmso stock; PBS buffer pH 6.5, shaken 24h at rt, LC-MSMS; read-out: Solubility of example compounds at pH 6.5. Here is the method: Measurement of Solubility in Buffer at pH 6.5 2-4 mg of the test compound are dissolved in DMSO to reach a concentration of 50 g/L (solution A). To 10 μl of this solution 960 μl PBS buffer pH 6.5 are added (final concentration: 515 μg/1); the mixture is shaken for 24h at rt in a 96 well plate. An aliquot is centrifuged at 42000 rpm für 30 min. The supernatant is diluted with acetonitrile/water (8:2) 1:10 and 1:1000 resp. This diluted samples are analyzed by LC-MSMS. Calibration: 10 μl of solution A are diluted with 823 μl DMSO (final concentration: 600 μg/ml), which is further diluted with acetonitrile/water 8:2 by a factor of 100 (provides solution B). The calibration curve is obtained from solution B by further diluting with acetonitrile/water 8:2 with target concentrations of 1.2-12-60-600 ng/ml and injecting these four solutions for MS measurement. PBS-Puffer: 6.18 g sodium chloride and 3.96 g sodium dihydrogen phosphate are dissolved in 1 L aqua dist., the pH is adjusted to 6.5 with 1N sodium hydroxide. The following conditions were used for quantification: Autosampler without auto inject ahead setting, column: Waters OASIS HLB, 2,1×20 mm, 25μ, column temperature: 30° C., flow rate: 2.5 mL/min, injected volume: 2 μl, Splitter (before MS) 1:20.

Converted amounts (≈) assume the structure as drawn.

On to `CC(C)(CC(=O)OCCOC(=O)OCN(C(=O)c1cc(-c2cnn(-c3c(Cl)cc(C(F)(C(F)(F)F)C(F)(F)F)cc3OC(F)(F)F)c2)ccc1Cl)C1(C#N)CC1)C(=O)O` [Example 9, 1-(2-Chloro-5-{1-[2-chloro-4-(1,1,1,2,3,3,3-heptafluoropropan-2-yl)-6-(trifluoromethoxy)phenyl]-1H-pyrazol-4-yl}phenyl)-2-(1-cyanocyclopropyl)-12,12-dimethyl-1,5,10-trioxo-4,6,9-trioxa-2-azatridecan-13-oic Acid], for which the solubility at 24 h is 5 µg/mL (≈ 5.58 µM).

Turning to `CC(C)(COC(=O)OCN(C(=O)c1cc(-c2cnn(-c3c(Cl)cc(C(F)(C(F)(F)F)C(F)(F)F)cc3OC(F)(F)F)c2)ccc1Cl)C1(C#N)CC1)C(=O)O` [Example 41, 3-[({[(2-Chloro-5-{1-[2-chloro-4-(1,1,1,2,3,3,3-heptafluoropropan-2-yl)-6-(trifluoromethoxy)phenyl]-1H-pyrazol-4-yl}benzoyl)(1-cyanocyclopropyl)amino]methoxy}carbonyl)oxy]-2,2-dimethylpropanoic Acid], the solubility at 24 h turned out to be 4 µg/mL (≈ 4.86 µM).

For `Cn1nc(C(F)(F)C(F)(F)F)c(C(F)(F)F)c1-n1cc(-c2ccc(Cl)c(C(=O)N(COC(=O)O[C@H]3CC[C@H](OC(=O)/C=C/C(=O)O)CC3)C3(C#N)CC3)c2)cn1` [Example 22, Trans (2E)-4-({-4-[({[{2-chloro-5-[2′-methyl-5′-(pentafluoroethyl)-4′-(trifluoromethyl)-2′H-[1,3′-bipyrazol]-4-yl]benzoyl}(1-cyanocyclopropyl)amino]methoxy}carbonyl)oxy]cyclohexyl}oxy)-4-oxobut-2-enoic Acid], the solubility at 24 h amounted to 17 µg/mL (≈ 20.7 µM).

As for `Cn1nc(C(F)(F)C(F)(F)F)c(C(F)(F)F)c1-n1cc(-c2ccc(Cl)c(C(=O)N(COC(=O)O[C@H]3CC[C@@H](C(=O)O)CC3)C3(C#N)CC3)c2)cn1` [Example 23, Cis-4-[({[{2-Chloro-5-[2′-methyl-5′-(pentafluoroethyl)-4′-(trifluoromethyl)-2′H-[1,3′-bipyrazol]-4-yl]benzoyl}(1-cyanocyclopropyl)amino]methoxy}carbonyl)oxy]cyclohexane-1-carboxylic Acid], the solubility at 24 h stood at 50 µg/mL (≈ 66.4 µM).

Take `N#CC1(N(COC(=O)OCCCC(=O)O)C(=O)c2cc(-c3cnn(-c4c(Cl)cc(C(F)(C(F)(F)F)C(F)(F)F)cc4OC(F)(F)F)c3)ccc2Cl)CC1` [Example 37, 4-[({[(2-Chloro-5-{1-[2-chloro-4-(1,1,1,2,3,3,3-heptafluoropropan-2-yl)-6-(trifluoromethoxy)phenyl]-1H-pyrazol-4-yl}benzoyl)(1-cyanocyclopropyl)amino]methoxy}carbonyl)oxy]butanoic Acid]: the solubility at 24 h was 7 µg/mL (≈ 8.65 µM).

Take `Cn1nc(C(F)(F)C(F)(F)F)c(C(F)(F)F)c1-n1cc(-c2ccc(Cl)c(C(=O)N(COC(=O)OCCOC(=O)CCCC(=O)O)C3(C#N)CC3)c2)cn1` [Example 28, 1-{2-Chloro-5-[2′-methyl-5′-(pentafluoroethyl)-4′-(trifluoromethyl)-2′H-[1,3′-bipyrazol]-4-yl]phenyl}-2-(1-cyanocyclopropyl)-1,5,10-trioxo-4,6,9-trioxa-2-azatetradecan-14-oic Acid]: the solubility at 24 h is 76 µg/mL (≈ 96.8 µM).

Consider `N#CC1(N(COC(=O)OCCOC(=O)CCCC(=O)O)C(=O)c2cc(-c3cnn(-c4c(Cl)cc(C(F)(C(F)(F)F)C(F)(F)F)cc4OC(F)(F)F)c3)ccc2Cl)CC1` [Example 12, 1-(2-Chloro-5-{1-[2-chloro-4-(1,1,1,2,3,3,3-heptafluoropropan-2-yl)-6-(trifluoromethoxy)phenyl]-1H-pyrazol-4-yl}phenyl)-2-(1-cyanocyclopropyl)-1,5,10-trioxo-4,6,9-trioxa-2-azatetradecan-14-oic Acid], for which the solubility at 24 h was 3 µg/mL (≈ 3.4 µM).

On to `N#CC1(N(COC(=O)O[C@H]2CCC[C@@H]2OC(=O)/C=C/C(=O)O)C(=O)c2cc(-c3cnn(-c4c(Cl)cc(C(F)(C(F)(F)F)C(F)(F)F)cc4OC(F)(F)F)c3)ccc2Cl)CC1` [Example 10, (2E)-4-({(1S,2S)-2-[({[(2-chloro-5-{1-[2-chloro-4-(1,1,1,2,3,3,3-heptafluoropropan-2-yl)-6-(trifluoromethoxy)phenyl]-1H-pyrazol-4-yl}benzoyl)(1-cyanocyclopropyl)amino]methoxy}carbonyl)oxy]cyclopentyl}oxy)-4-oxobut-2-enoic Acid], for which the solubility at 24 h came to 3 µg/mL (≈ 3.31 µM).

As for `N#CC1(N(COC(=O)OCC(=O)O)C(=O)c2cc(-c3cnn(-c4c(Cl)cc(C(F)(C(F)(F)F)C(F)(F)F)cc4OC(F)(F)F)c3)ccc2Cl)CC1` [Example 19, [({[(2-chloro-5-{1-[2-chloro-4-(1,1,1,2,3,3,3-heptafluoropropan-2-yl)-6-(trifluoromethoxy)phenyl]-1H-pyrazol-4-yl}benzoyl)(1-cyanocyclopropyl)amino]methoxy}carbonyl)oxy]acetic Acid], the solubility at 24 h worked out at 42 µg/mL (≈ 53.8 µM).

`Cn1nc(C(F)(F)C(F)(F)F)c(C(F)(F)F)c1-n1cc(-c2ccc(Cl)c(C(=O)N(COC(=O)OCCCOC(=O)/C=C/C(=O)O)C3(C#N)CC3)c2)cn1` [Example 25, (12E)-1-{2-Chloro-5-[2′-methyl-5′-(pentafluoroethyl)-4′-(trifluoromethyl)-2′H-[1,3′-bipyrazol]-4-yl]phenyl}-2-(1-cyanocyclopropyl)-1,5,11-trioxo-4,6,10-trioxa-2-azatetradec-12-en-14-oic Acid]: the solubility at 24 h turned out to be 98 µg/mL (≈ 125 µM).

As to `Cn1nc(C(F)(F)C(F)(F)F)c(C(F)(F)F)c1-n1cc(-c2ccc(Cl)c(C(=O)N(COC(=O)OCCOC(=O)CC(C)(C)C(=O)O)C3(C#N)CC3)c2)cn1` [Example 40, 1-{2-Chloro-5-[2′-methyl-5′-(pentafluoroethyl)-4′-(trifluoromethyl)-2′H-[1,3′-bipyrazol]-4-yl]phenyl}-2-(1-cyanocyclopropyl)-12,12-dimethyl-1,5,10-trioxo-4,6,9-trioxa-2-azatridecan-13-oic Acid], the solubility at 24 h was 43 µg/mL (≈ 53.8 µM).

With `Cn1nc(C(F)(F)C(F)(F)F)c(C(F)(F)F)c1-n1cc(-c2ccc(Cl)c(C(=O)N(COC(=O)OCCOC(=O)C3(C(=O)O)CC3)C3(C#N)CC3)c2)cn1` [Example 27, 1-[10-{2-Chloro-5-[2′-methyl-5′-(pentafluoroethyl)-4′-(trifluoromethyl)-2′H-[1,3′-bipyrazol]-4-yl]phenyl}-9-(1-cyanocyclopropyl)-6,10-dioxo-2,5,7-trioxa-9-azadecanan-1-oyl]cyclopropane-1-carboxylic Acid], the solubility at 24 h came to 147 µg/mL (≈ 188 µM).

For the compound `Cn1nc(C(F)(F)C(F)(F)F)c(C(F)(F)F)c1-n1cc(-c2ccc(Cl)c(C(=O)N(COC(=O)OCC(C)(C)COC(=O)CCC(=O)O)C3(C#N)CC3)c2)cn1` [Example 29, 1-{2-Chloro-5-[2′-methyl-5′-(pentafluoroethyl)-4′-(trifluoromethyl)-2′H-[1,3′-bipyrazol]-4-yl]phenyl}-2-(1-cyanocyclopropyl)-8,8-dimethyl-1,5,11-trioxo-4,6,10-trioxa-2-azatetradecan-14-oic Acid], the solubility at 24 h came to 35 µg/mL (≈ 43 µM).

On to `CC(C)(COCCOC(=O)OCN(C(=O)c1cc(-c2cnn(-c3c(Cl)cc(C(F)(C(F)(F)F)C(F)(F)F)cc3OC(F)(F)F)c2)ccc1Cl)C1(C#N)CC1)C(=O)O` [Example 8, 1-(2-chloro-5-{1-[2-chloro-4-(1,1,1,2,3,3,3-heptafluoropropan-2-yl)-6-(trifluoromethoxy)phenyl]-1H-pyrazol-4-yl}phenyl)-2-(1-cyanocyclopropyl)-11,11-dimethyl-1,5-dioxo-4,6,9-trioxa-2-azadodecan-12-oic Acid], for which the solubility at 24 h is 1 µg/mL (≈ 1.15 µM).

As usually defined, the solubility is the dissolved amount per volume that the medium holds.
